Experimental data reported in the supplement of paper PMC10307832.

Compound: CC(C)(C)c1nc(-c2cccc(NS(=O)(=O)c3c(F)cccc3F)c2F)c(-c2ccnc(N)n2)s1 [Dabrafenib] + C[C@@H](Oc1cc(-c2cnn(C3CCNCC3)c2)cnc1N)c1c(Cl)ccc(F)c1Cl [Crizotinib] (partner 1 µM)
Test: relative viability (nuclei count vs DMSO), 5 days (fraction); higher = more cells survive
Settings: first compound 0.003 µM
How it was run: (§1)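 Each reported value is a median over duplicate plates. It expresses relative viability: treated-well nuclei count divided by vehicle-well nuclei count. Lung cancer cell lines in 1536-well plates were dosed by pin tool a day after seeding, alone with one drug or with a fixed anchor-drug dose plus five library-drug doses (not always all listed) in √10 steps, and nuclei were counted after 5 days.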

Cell Line	relative viability
NCI-H661	1.07
NCI-H1993	0.86
PC-3 [JPC-3]	0.95
NCI-H2009	0.973
NCI-H2347	0.441
NCI-H520	0.756
LXF-289	0.802
LC-2-ad	0.42
201T	1.04
NCI-H1666	0.988
NCI-H2023	0.745
HARA	0.975
SK-MES-1	0.919

Same assay, conditions: first compound 0.009487 µM

Cell Line	relative viability
SW 1573	0.94
NCI-H838	0.905
EPLC-272H	1.17
NCI-H3122	0.272
NCI-H1563	0.933
NCI-H1915	0.893
NCI-H727	1.01
NCI-H1975	0.968
LK-2	0.223
HCC-366	0.542
NCI-H2087	0.788
LCLC-97TM1	0.325
NCI-H661	0.958
NCI-H2405	0.78
NCI-H1993	0.946
PC-3 [JPC-3]	1.03
NCI-H2009	1.01
NCI-H2347	0.698
NCI-H520	0.752
LXF-289	0.833
NCI-H358	0.662
LC-2-ad	0.398
201T	1.01
NCI-H2023	0.651
NCI-H322M	1.09
HARA	1.04
SK-MES-1	0.985

Same assay, conditions: first compound 0.03 µM

Cell Line	relative viability
SW 1573	0.697
NCI-H838	0.759
EPLC-272H	0.784
NCI-H3122	0.274
NCI-H1563	0.868
NCI-H1915	0.721
NCI-H727	0.791
NCI-H1975	0.881
HCC-366	0.436
NCI-H2087	0.715
LCLC-97TM1	0.406
NCI-H2405	0.52
NCI-H1993	0.826
PC-3 [JPC-3]	0.978
NCI-H2009	1.02
NCI-H2347	0.67
NCI-H520	0.732
LXF-289	0.892
NCI-H358	0.553
LC-2-ad	0.389
201T	0.939
NCI-H1666	1.09
NCI-H2023	0.651
HARA	1.01
SK-MES-1	1.04

Same assay, conditions: first compound 0.09487 µM

Cell Line	relative viability
SW 1573	0.755
NCI-H838	0.829
EPLC-272H	0.976
NCI-H3122	0.259
NCI-H1563	0.908
NCI-H1915	0.752
NCI-H727	0.909
NCI-H1975	0.938
LK-2	0.254
HCC-366	0.44
NCI-H2087	0.736
NCI-H661	0.96
NCI-H2405	0.772
NCI-H1993	0.929
PC-3 [JPC-3]	1.02
NCI-H2009	0.697
NCI-H2347	0.674
NCI-H520	0.582
LXF-289	0.804
NCI-H358	0.631
LC-2-ad	0.426
201T	1.03
NCI-H1666	0.87
NCI-H2023	0.876
NCI-H322M	0.876
HARA	0.855
SK-MES-1	0.912

Same assay, conditions: first compound 0.3 µM

Cell Line	relative viability
SW 1573	0.782
NCI-H838	0.979
EPLC-272H	0.83
NCI-H3122	0.361
NCI-H1563	0.953
NCI-H1915	0.731
NCI-H727	0.84
NCI-H1975	0.87
LK-2	0.197
HCC-366	0.572
NCI-H2087	0.675
LCLC-97TM1	0.287
NCI-H661	1.04
NCI-H2405	0.82
NCI-H1993	1.06
PC-3 [JPC-3]	1
NCI-H2009	0.662
NCI-H2347	0.62
NCI-H520	0.664
LXF-289	0.883
NCI-H358	0.476
LC-2-ad	0.447
201T	1.03
NCI-H1666	1.17
NCI-H2023	0.802
NCI-H322M	0.941
HARA	1.11
SK-MES-1	0.962

Compound: CC(C)(C)c1nc(-c2cccc(NS(=O)(=O)c3c(F)cccc3F)c2F)c(-c2ccnc(N)n2)s1 [Dabrafenib] + CS(=O)(=O)CCNCc1ccc(-c2ccc3ncnc(Nc4ccc(OCc5cccc(F)c5)c(Cl)c4)c3c2)o1 [Lapatinib] (partner 2 µM)
Test: as above
Settings: first compound 0.003 µM
How it was run: as §1

Cell Line	relative viability
SW 1573	0.883
NCI-H838	0.816
NCI-H3122	1.05
NCI-H1563	0.831
NCI-H1915	1.04
NCI-H1975	0.914
LK-2	0.885
NCI-H2087	0.689
NCI-H661	0.471
NCI-H1993	0.696
PC-3 [JPC-3]	0.448
NCI-H2009	0.311
NCI-H2347	0.631
NCI-H520	0.856
LXF-289	0.867
LC-2-ad	0.862
201T	1.06
NCI-H1666	0.547
NCI-H2023	0.617
HARA	0.648
SK-MES-1	0.418

Same assay, conditions: first compound 0.009487 µM

Cell Line	relative viability
SW 1573	0.864
NCI-H838	1.17
EPLC-272H	0.882
NCI-H3122	1.08
NCI-H1563	1.06
NCI-H1915	0.985
NCI-H727	0.811
NCI-H1975	0.858
LK-2	1.02
HCC-366	1.08
NCI-H2087	1.08
LCLC-97TM1	1.19
NCI-H661	0.486
NCI-H2405	0.804
NCI-H1993	0.729
PC-3 [JPC-3]	0.509
NCI-H2009	1
NCI-H2347	1.02
NCI-H520	0.867
LXF-289	0.907
NCI-H358	0.53
LC-2-ad	1.01
201T	1.04
NCI-H2023	1.09
NCI-H322M	0.657
HARA	0.683
SK-MES-1	0.546

Same assay, conditions: first compound 0.03 µM

Cell Line	relative viability
SW 1573	1.17
NCI-H838	0.871
EPLC-272H	1
NCI-H3122	1.04
NCI-H1563	0.633
NCI-H1915	0.781
NCI-H727	0.658
NCI-H1975	0.881
HCC-366	0.776
NCI-H2087	0.769
LCLC-97TM1	0.994
NCI-H661	0.364
NCI-H1993	0.754
PC-3 [JPC-3]	0.416
NCI-H2009	0.872
NCI-H2347	0.918
NCI-H520	0.642
LXF-289	1.11
NCI-H358	0.369
LC-2-ad	0.976
201T	1.01
NCI-H1666	0.623
NCI-H2023	0.979
HARA	0.565
SK-MES-1	0.525

Same assay, conditions: first compound 0.09487 µM

Cell Line	relative viability
SW 1573	1.1
NCI-H838	0.855
EPLC-272H	0.765
NCI-H3122	0.959
NCI-H1563	0.928
NCI-H1915	0.654
NCI-H727	0.755
NCI-H1975	0.84
LK-2	0.902
HCC-366	1.05
NCI-H2087	0.77
NCI-H661	0.458
NCI-H2405	0.853
NCI-H1993	0.713
PC-3 [JPC-3]	0.434
NCI-H2009	0.606
NCI-H2347	0.897
NCI-H520	0.816
LXF-289	1
NCI-H358	0.446
LC-2-ad	0.886
201T	1.03
NCI-H1666	0.629
NCI-H2023	0.79
NCI-H322M	0.584
HARA	0.751
SK-MES-1	0.506

Same assay, conditions: first compound 0.3 µM

Cell Line	relative viability
SW 1573	1.11
NCI-H838	1.1
EPLC-272H	1.18
NCI-H3122	1.08
NCI-H1563	0.938
NCI-H1915	0.673
NCI-H727	0.817
NCI-H1975	0.786
LK-2	0.985
HCC-366	1.2
NCI-H2087	0.785
LCLC-97TM1	0.916
NCI-H661	0.455
NCI-H2405	0.937
NCI-H1993	0.882
PC-3 [JPC-3]	0.429
NCI-H2009	0.484
NCI-H2347	0.89
NCI-H520	0.727
LXF-289	1.09
NCI-H358	0.465
LC-2-ad	0.925
201T	1.09
NCI-H1666	0.745
NCI-H2023	0.961
NCI-H322M	0.559
HARA	0.955
SK-MES-1	0.598
